Laboratory results taken from US20240415914A1, “Water Dispersible Cannabinoid Compositions” (priority 2021, published 2024).
Like-named read-outs stand apart in the source and are kept apart here.

Tests used:
[1] = assay type: physicochemical; settings: stored at room temperature (21-25° C.)
Procedure: At each time period, 0.05 g of powder was dissolved in 10 ml-15 of ethanol, diluted to fall within the analytical range, and injected into the LCMSMS for analysis.

[2] = Stability of cannabinoid and Vitamin E components of Beverage 2 (AB Red) stored at 8° C. and 21-25° C., LCMSMS over 570 days
Procedure: The LCMSMS was calibrated for 0-50 ng/ml cannabinoids with the same resin material used in the preparation of the concentrates. At each time period, 100 μml of beverage was diluted with 10 ml of methanol and injected into the LCMSMS for analysis.

CCCCCc1cc(O)c2c(c1)OC(C)(C)c1ccc(C)cc1-2 [CBN, cannabinol]
Stability in Powder Concentrate (content by LCMSMS) ([1]; day 0): 0.480 mg/g powder
Stability in Powder Concentrate (content by LCMSMS) ([1]; day 1): 0.471 mg/g powder
Stability in Powder Concentrate (content by LCMSMS) ([1]; day 2): 0.488 mg/g powder
Stability in Powder Concentrate (content by LCMSMS) ([1]; day 3): 0.474 mg/g powder
Stability in Powder Concentrate (content by LCMSMS) ([1]; day 5): 0.491 mg/g powder
Stability in Powder Concentrate (content by LCMSMS) ([1]; day 8): 0.469 mg/g powder
Stability in Powder Concentrate (content by LCMSMS) ([1]; day 9): 0.466 mg/g powder
Stability in Powder Concentrate (content by LCMSMS) ([1]; day 10): 0.499 mg/g powder
Stability in Powder Concentrate (content by LCMSMS) ([1]; day 11): 0.494 mg/g powder
Stability in Powder Concentrate (content by LCMSMS) ([1]; day 12): 0.496 mg/g powder
Stability in Powder Concentrate (content by LCMSMS) ([1]; day 15): 0.472 mg/g powder
Stability in Powder Concentrate (content by LCMSMS) ([1]; day 16): 0.483 mg/g powder
Stability in Powder Concentrate (content by LCMSMS) ([1]; day 17): 0.465 mg/g powder
Stability in Powder Concentrate (content by LCMSMS) ([1]; day 18): 0.470 mg/g powder
Stability in Powder Concentrate (content by LCMSMS) ([1]; day 19): 0.490 mg/g powder
Stability in Powder Concentrate (content by LCMSMS) ([1]; day 22): 0.486 mg/g powder
Stability in Powder Concentrate (content by LCMSMS) ([1]; day 23): 0.469 mg/g powder
Stability in Powder Concentrate (content by LCMSMS) ([1]; day 24): 0.465 mg/g powder
Stability in Powder Concentrate (content by LCMSMS) ([1]; day 25): 0.486 mg/g powder
Stability in Powder Concentrate (content by LCMSMS) ([1]; day 26): 0.486 mg/g powder
Stability in Powder Concentrate (content by LCMSMS) ([1]; day 29): 0.484 mg/g powder
Stability in Powder Concentrate (content by LCMSMS) ([1]; day 30): 0.476 mg/g powder
Stability in Powder Concentrate (content by LCMSMS) ([1]; day 60): 0.489 mg/g powder
Stability in Powder Concentrate (content by LCMSMS) ([1]; day 90): 0.483 mg/g powder
Stability in Powder Concentrate (content by LCMSMS) ([1]; day 120): 0.498 mg/g powder
Stability in Powder Concentrate (content by LCMSMS) ([1]; day 150): 0.500 mg/g powder
Stability in Powder Concentrate (content by LCMSMS) ([1]; day 180): 0.464 mg/g powder
Stability in Powder Concentrate (content by LCMSMS) ([1]; day 210): 0.501 mg/g powder
Stability in Powder Concentrate (content by LCMSMS) ([1]; day 240): 0.467 mg/g powder
Stability in Powder Concentrate (content by LCMSMS) ([1]; day 270): 0.464 mg/g powder
Stability in Powder Concentrate (content by LCMSMS) ([1]; day 300): 0.469 mg/g powder
Stability in Powder Concentrate (content by LCMSMS) ([1]; day 330): 0.502 mg/g powder
Stability in Powder Concentrate (content by LCMSMS) ([1]; day 360): 0.499 mg/g powder
Stability in Powder Concentrate (content by LCMSMS) ([1]; day 390): 0.479 mg/g powder
Stability in Powder Concentrate (content by LCMSMS) ([1]; day 420): 0.481 mg/g powder
Stability in Powder Concentrate (content by LCMSMS) ([1]; day 450): 0.480 mg/g powder
Stability in Powder Concentrate (content by LCMSMS) ([1]; day 480): 0.485 mg/g powder
Stability in Powder Concentrate (content by LCMSMS) ([1]; day 510): 0.499 mg/g powder
Stability in Powder Concentrate (content by LCMSMS) ([1]; day 540): 0.492 mg/g powder
Stability in Powder Concentrate (content by LCMSMS) ([1]; day 570): 0.471 mg/g powder
Stability of Cannabinoids in AB Red ([2]; 8° C., 0 days): 2.81 µg/mL
Stability of Cannabinoids in AB Red ([2]; 8° C., 1 days): 2.82 µg/mL
Stability of Cannabinoids in AB Red ([2]; 8° C., 2 days): 2.74 µg/mL
Stability of Cannabinoids in AB Red ([2]; 8° C., 3 days): 2.83 µg/mL
Stability of Cannabinoids in AB Red ([2]; 8° C., 5 days): 2.78 µg/mL
Stability of Cannabinoids in AB Red ([2]; 8° C., 8 days): 2.80 µg/mL
Stability of Cannabinoids in AB Red ([2]; 8° C., 9 days): 2.74 µg/mL
Stability of Cannabinoids in AB Red ([2]; 8° C., 10 days): 2.79 µg/mL
Stability of Cannabinoids in AB Red ([2]; 8° C., 11 days): 2.73 µg/mL
Stability of Cannabinoids in AB Red ([2]; 8° C., 12 days): 2.76 µg/mL
Stability of Cannabinoids in AB Red ([2]; 8° C., 15 days): 2.77 µg/mL
Stability of Cannabinoids in AB Red ([2]; 8° C., 16 days): 2.83 µg/mL
Stability of Cannabinoids in AB Red ([2]; 8° C., 17 days): 2.80 µg/mL
Stability of Cannabinoids in AB Red ([2]; 8° C., 18 days): 2.78 µg/mL
Stability of Cannabinoids in AB Red ([2]; 8° C., 19 days): 2.78 µg/mL
Stability of Cannabinoids in AB Red ([2]; 8° C., 22 days): 2.73 µg/mL
Stability of Cannabinoids in AB Red ([2]; 8° C., 23 days): 2.79 µg/mL
Stability of Cannabinoids in AB Red ([2]; 8° C., 24 days): 2.76 µg/mL
Stability of Cannabinoids in AB Red ([2]; 8° C., 25 days): 2.83 µg/mL
Stability of Cannabinoids in AB Red ([2]; 8° C., 26 days): 2.79 µg/mL
Stability of Cannabinoids in AB Red ([2]; 8° C., 29 days): 2.77 µg/mL
Stability of Cannabinoids in AB Red ([2]; 8° C., 30 days): 2.77 µg/mL
Stability of Cannabinoids in AB Red ([2]; 8° C., 60 days): 2.73 µg/mL
Stability of Cannabinoids in AB Red ([2]; 8° C., 90 days): 2.80 µg/mL
Stability of Cannabinoids in AB Red ([2]; 8° C., 120 days): 2.69 µg/mL
Stability of Cannabinoids in AB Red ([2]; 8° C., 150 days): 2.69 µg/mL
Stability of Cannabinoids in AB Red ([2]; 8° C., 180 days): 2.74 µg/mL
Stability of Cannabinoids in AB Red ([2]; 8° C., 210 days): 2.69 µg/mL
Stability of Cannabinoids in AB Red ([2]; 8° C., 240 days): 2.74 µg/mL
Stability of Cannabinoids in AB Red ([2]; 8° C., 270 days): 2.76 µg/mL
Stability of Cannabinoids in AB Red ([2]; 8° C., 300 days): 2.75 µg/mL
Stability of Cannabinoids in AB Red ([2]; 8° C., 330 days): 2.71 µg/mL
Stability of Cannabinoids in AB Red ([2]; 8° C., 390 days): 2.72 µg/mL
Stability of Cannabinoids in AB Red ([2]; 8° C., 420 days): 2.69 µg/mL
Stability of Cannabinoids in AB Red ([2]; 8° C., 450 days): 2.71 µg/mL
Stability of Cannabinoids in AB Red ([2]; 8° C., 480 days): 2.66 µg/mL
Stability of Cannabinoids in AB Red ([2]; 8° C., 510 days): 2.62 µg/mL
Stability of Cannabinoids in AB Red ([2]; 8° C., 540 days): 2.60 µg/mL
Stability of Cannabinoids in AB Red ([2]; 8° C., 570 days): 2.58 µg/mL
Stability of Cannabinoids in AB Red ([2]; 21-25° C., 0 days): 2.81 µg/mL
Stability of Cannabinoids in AB Red ([2]; 21-25° C., 1 days): 2.73 µg/mL
Stability of Cannabinoids in AB Red ([2]; 21-25° C., 2 days): 2.83 µg/mL
Stability of Cannabinoids in AB Red ([2]; 21-25° C., 3 days): 2.78 µg/mL
Stability of Cannabinoids in AB Red ([2]; 21-25° C., 5 days): 2.71 µg/mL
Stability of Cannabinoids in AB Red ([2]; 21-25° C., 8 days): 2.74 µg/mL
Stability of Cannabinoids in AB Red ([2]; 21-25° C., 9 days): 2.72 µg/mL
Stability of Cannabinoids in AB Red ([2]; 21-25° C., 10 days): 2.73 µg/mL
Stability of Cannabinoids in AB Red ([2]; 21-25° C., 11 days): 2.83 µg/mL
Stability of Cannabinoids in AB Red ([2]; 21-25° C., 12 days): 2.70 µg/mL
Stability of Cannabinoids in AB Red ([2]; 21-25° C., 15 days): 2.77 µg/mL
Stability of Cannabinoids in AB Red ([2]; 21-25° C., 16 days): 2.81 µg/mL
Stability of Cannabinoids in AB Red ([2]; 21-25° C., 17 days): 2.74 µg/mL
Stability of Cannabinoids in AB Red ([2]; 21-25° C., 18 days): 2.80 µg/mL
Stability of Cannabinoids in AB Red ([2]; 21-25° C., 19 days): 2.70 µg/mL
Stability of Cannabinoids in AB Red ([2]; 21-25° C., 22 days): 2.70 µg/mL
Stability of Cannabinoids in AB Red ([2]; 21-25° C., 23 days): 2.82 µg/mL
Stability of Cannabinoids in AB Red ([2]; 21-25° C., 24 days): 2.78 µg/mL
Stability of Cannabinoids in AB Red ([2]; 21-25° C., 25 days): 2.84 µg/mL
Stability of Cannabinoids in AB Red ([2]; 21-25° C., 26 days): 2.70 µg/mL
Stability of Cannabinoids in AB Red ([2]; 21-25° C., 29 days): 2.78 µg/mL
Stability of Cannabinoids in AB Red ([2]; 21-25° C., 30 days): 2.77 µg/mL
Stability of Cannabinoids in AB Red ([2]; 21-25° C., 60 days): 2.78 µg/mL
Stability of Cannabinoids in AB Red ([2]; 21-25° C., 90 days): 2.75 µg/mL
Stability of Cannabinoids in AB Red ([2]; 21-25° C., 120 days): 2.77 µg/mL
Stability of Cannabinoids in AB Red ([2]; 21-25° C., 150 days): 2.75 µg/mL
Stability of Cannabinoids in AB Red ([2]; 21-25° C., 180 days): 2.70 µg/mL
Stability of Cannabinoids in AB Red ([2]; 21-25° C., 210 days): 2.70 µg/mL
Stability of Cannabinoids in AB Red ([2]; 21-25° C., 240 days): 2.73 µg/mL
Stability of Cannabinoids in AB Red ([2]; 21-25° C., 270 days): 2.73 µg/mL
Stability of Cannabinoids in AB Red ([2]; 21-25° C., 300 days): 2.70 µg/mL
Stability of Cannabinoids in AB Red ([2]; 21-25° C., 330 days): 2.75 µg/mL
Stability of Cannabinoids in AB Red ([2]; 21-25° C., 390 days): 2.65 µg/mL
Stability of Cannabinoids in AB Red ([2]; 21-25° C., 420 days): 2.64 µg/mL
Stability of Cannabinoids in AB Red ([2]; 21-25° C., 450 days): 2.68 µg/mL
Stability of Cannabinoids in AB Red ([2]; 21-25° C., 480 days): 2.58 µg/mL
Stability of Cannabinoids in AB Red ([2]; 21-25° C., 510 days): 2.66 µg/mL
Stability of Cannabinoids in AB Red ([2]; 21-25° C., 540 days): 2.65 µg/mL
Stability of Cannabinoids in AB Red ([2]; 21-25° C., 570 days): 2.58 µg/mL
